Data published in PubChem BioAssay AID1259407 (Chemical Carcinogenesis Research Information System (CCRIS), 2018).
The source made the active and inactive calls. No rule for the calls is given here.

Tested on: CCRIS mutagenicity, Ames/micronucleus/aberration tests
Assay: CCRIS mutagenicity studies
Conditions: Test System: AMES SALMONELLA TYPHIMURIUM
[1] = Strain/Indicator: TA98, Metabolic Activation: NONE, Method: PREINCUBATION
[2] = Strain/Indicator: TA100, Metabolic Activation: NONE, Method: PREINCUBATION
[3] = Strain/Indicator: TA98, Metabolic Activation: NONE, Method: STANDARD PLATE
[4] = Strain/Indicator: TA100, Metabolic Activation: NONE, Method: STANDARD PLATE
[5] = Strain/Indicator: TA100, Metabolic Activation: S-9, Method: STANDARD PLATE
[6] = Strain/Indicator: TA1537, Metabolic Activation: NONE, Method: STANDARD PLATE
[7] = Strain/Indicator: TA1537, Metabolic Activation: S-9, Method: STANDARD PLATE

SMILES: O=[N+]([O-])c1ccc(CNc2ncnc3nc[nH]c23)cc1
- mutagenic call (Strain/Indicator: TA98(1,8-DNP), Metabolic Activation: NONE, Method: PREINCUBATION): inactive; negative
- mutagenic call (Strain/Indicator: TA98(1,8-DNP), Metabolic Activation: RAT, LIVER, S-9, PCB, Method: PREINCUBATION): inactive; negative
- mutagenic call (Strain/Indicator: TA98(NR), Metabolic Activation: NONE, Method: PREINCUBATION): inactive; negative
- mutagenic call (Strain/Indicator: TA98(NR), Metabolic Activation: RAT, LIVER, S-9, PCB, Method: PREINCUBATION): inactive; negative
- mutagenic call [1]: inactive; negative
- mutagenic call (Strain/Indicator: TA98, Metabolic Activation: RAT, LIVER, S-9, PCB, Method: PREINCUBATION): inactive; negative
- mutagenic call (Strain/Indicator: TA100(1,8-DNP), Metabolic Activation: NONE, Method: PREINCUBATION): inactive; negative
- mutagenic call (Strain/Indicator: TA100(1,8-DNP), Metabolic Activation: RAT, LIVER, S-9, PCB, Method: PREINCUBATION): inactive; negative
- mutagenic call (Strain/Indicator: TA100(NR), Metabolic Activation: NONE, Method: PREINCUBATION): inactive; negative
- mutagenic call (Strain/Indicator: TA100(NR), Metabolic Activation: RAT, LIVER, S-9, PCB, Method: PREINCUBATION): inactive; negative
- mutagenic call [2]: inactive; negative
- mutagenic call (Strain/Indicator: TA100, Metabolic Activation: RAT, LIVER, S-9, PCB, Method: PREINCUBATION): inactive; negative
- mutagenic call (Strain/Indicator: YG1020, Metabolic Activation: NONE, Method: PREINCUBATION): inactive; negative
- mutagenic call (Strain/Indicator: YG1020, Metabolic Activation: RAT, LIVER, S-9, PCB, Method: PREINCUBATION): inactive; negative
- mutagenic call (Strain/Indicator: YG1021, Metabolic Activation: NONE, Method: PREINCUBATION): inactive; negative
- mutagenic call (Strain/Indicator: YG1021, Metabolic Activation: RAT, LIVER, S-9, PCB, Method: PREINCUBATION): active; positive
- mutagenic call (Strain/Indicator: YG1024, Metabolic Activation: NONE, Method: PREINCUBATION): active; positive
- mutagenic call (Strain/Indicator: YG1024, Metabolic Activation: RAT, LIVER, S-9, PCB, Method: PREINCUBATION): inactive; negative
- mutagenic call (Strain/Indicator: YG1025, Metabolic Activation: NONE, Method: PREINCUBATION): inactive; negative
- mutagenic call (Strain/Indicator: YG1025, Metabolic Activation: RAT, LIVER, S-9, PCB, Method: PREINCUBATION): inactive; negative
- mutagenic call (Strain/Indicator: YG1026, Metabolic Activation: NONE, Method: PREINCUBATION): inactive; negative
- mutagenic call (Strain/Indicator: YG1026, Metabolic Activation: RAT, LIVER, S-9, PCB, Method: PREINCUBATION): inactive; negative
- mutagenic call (Strain/Indicator: YG1029, Metabolic Activation: NONE, Method: PREINCUBATION): inactive; negative
- mutagenic call (Strain/Indicator: YG1029, Metabolic Activation: RAT, LIVER, S-9, PCB, Method: PREINCUBATION): inactive; negative

SMILES: O=C(/C=C/c1ccc(Br)cc1)c1ccccc1
- mutagenic call [3]: inactive; negative
- mutagenic call (Strain/Indicator: TA98, Metabolic Activation: RAT, LIVER, S-9, AROCLOR 1254, Method: STANDARD PLATE): inactive; negative
- mutagenic call [4]: inactive; negative
- mutagenic call (Strain/Indicator: TA100, Metabolic Activation: RAT, LIVER, S-9, AROCLOR 1254, Method: STANDARD PLATE): inactive; negative

SMILES: CCCC(=O)Nc1snc2ccc(Cl)cc12
- mutagenic call [4]: inactive; negative
- mutagenic call [5]: inactive; negative
- mutagenic call [6]: inactive; negative
- mutagenic call [7]: inactive; negative

SMILES: CC1CC(OC(=O)c2ccccc2O)CC(C)(C)C1 (configuration not stated)
- mutagenic call (Strain/Indicator: TA98, Metabolic Activation: HAMSTER, LIVER, S-9, AROCLOR 1254 (10%), Method: PREINCUBATION): inactive; negative
- mutagenic call [1]: inactive; negative
- mutagenic call (Strain/Indicator: TA98, Metabolic Activation: RAT, LIVER, S-9, AROCLOR 1254 (10%), Method: PREINCUBATION): inactive; negative
- mutagenic call (Strain/Indicator: TA100, Metabolic Activation: HAMSTER, LIVER, S-9, AROCLOR 1254 (10%), Method: PREINCUBATION): inactive; negative
- mutagenic call [2]: inactive; negative
- mutagenic call (Strain/Indicator: TA100, Metabolic Activation: RAT, LIVER, S-9, AROCLOR 1254 (10%), Method: PREINCUBATION): inactive; negative
- mutagenic call (Strain/Indicator: TA1535, Metabolic Activation: HAMSTER, LIVER, S-9, AROCLOR 1254 (10%), Method: PREINCUBATION): inactive; negative
- mutagenic call (Strain/Indicator: TA1535, Metabolic Activation: NONE, Method: PREINCUBATION): inactive; negative
- mutagenic call (Strain/Indicator: TA1535, Metabolic Activation: RAT, LIVER, S-9, AROCLOR 1254 (10%), Method: PREINCUBATION): inactive; negative
- mutagenic call (Strain/Indicator: TA1537, Metabolic Activation: HAMSTER, LIVER, S-9, AROCLOR 1254 (10%), Method: PREINCUBATION): inactive; negative
- mutagenic call (Strain/Indicator: TA1537, Metabolic Activation: NONE, Method: PREINCUBATION): inactive; negative
- mutagenic call (Strain/Indicator: TA1537, Metabolic Activation: RAT, LIVER, S-9, AROCLOR 1254 (10%), Method: PREINCUBATION): inactive; negative

SMILES: CCc1cc(-c2ccccc2)ccc1N
- mutagenic call [3]: inactive; negative
- mutagenic call (Strain/Indicator: TA98, Metabolic Activation: RAT LIVER S-9, AROCLOR, Method: STANDARD PLATE): active; positive
- mutagenic call [4]: active; positive
- mutagenic call (Strain/Indicator: TA100, Metabolic Activation: RAT LIVER S-9, AROCLOR, Method: STANDARD PLATE): active; positive

SMILES: CN1C(=O)[C@]23CC4=CC=C[C@H](O)[C@H]4N2C(=O)[C@@]1(CO)SS3
- mutagenic call [3]: inactive; negative
- mutagenic call (Strain/Indicator: TA98, Metabolic Activation: RAT LIVER S-9 MIX, Method: STANDARD PLATE): inactive; negative
- mutagenic call (Strain/Indicator: TA98, Metabolic Activation: S-9, Method: STANDARD PLATE): inactive; negative
- mutagenic call [4]: inactive; negative
- mutagenic call (Strain/Indicator: TA100, Metabolic Activation: RAT LIVER S-9 MIX, Method: STANDARD PLATE): inactive; negative
- mutagenic call [5]: inactive; negative
- mutagenic call (Strain/Indicator: TA102, Metabolic Activation: NONE, Method: STANDARD PLATE): inactive; negative
- mutagenic call (Strain/Indicator: TA102, Metabolic Activation: RAT LIVER S-9 MIX, Method: STANDARD PLATE): inactive; negative
- mutagenic call [6]: inactive; negative
- mutagenic call [7]: inactive; negative

SMILES: CC(C)(C)OOC1(C)C=C(C(C)(C)C)C(=O)C(C(C)(C)C)=C1
- mutagenic call [1]: inactive; negative
- mutagenic call (Strain/Indicator: TA98, Metabolic Activation: RAT, LIVER, S-9, Method: PREINCUBATION): inactive; negative
- mutagenic call [2]: inactive; negative
- mutagenic call (Strain/Indicator: TA100, Metabolic Activation: RAT, LIVER, S-9, Method: PREINCUBATION): inactive; negative
